Source: PMC10913730, “Antimicrobial activity of a natural compound and analogs against multi-drug-resistant Gram-positive pathogens” (Microbiology Spectrum, 2024)
Converted amounts (≈) assume the structure as drawn. Like-named read-outs stand apart in the source and are kept apart here.

Assays:
[1] = pH and Ka of 10-g/L aqueous solutions (pH meter); type: physicochemical; conditions: 10-g/L solution in distilled, deionized water
[2] = test system: MRSA isolates; experiment: MIC/MBC, CLSI broth microdilution, MRSA isolates; type: cell-based, Staphylococcus aureus
[3] = test system: Staphylococcus epidermidis isolates; experiment: microbe, parasite or virus in culture; type: cell-based; conditions: 21 Staphylococcus epidermidis isolates
[4] = test system: Enterococcus faecalis; experiment: MIC/MBC against Enterococcus faecalis; type: cell-based
[5] = test system: Streptococcus pyogenes; experiment: MIC/MBC against Streptococcus pyogenes; type: cell-based; conditions: for MBC: Streptococcus pyogenes
[6] = test system: Pseudomonas aeruginosa; experiment: MIC against Pseudomonas aeruginosa; type: cell-based
[7] = test system: MRSA isolate SAD05 biofilms; type: cell-based, Staphylococcus aureus
[8] = test system: human dermal fibroblast (HDF) cells; experiment: alamarBlue cell viability assay, HDF; conditions: HDFs, 24-hour incubation, non-linear regression
[9] = test system: human bronchial epithelial (16HBE) cells; experiment: alamarBlue cell viability assay, 16HBE; conditions: 24-hour incubation, non-linear regression
[10] = test system: erythrocytes (sheep blood); experiment: Hemolytic activity against sheep erythrocytes; conditions: higher than MIC90
[11] = Staphylococcus aureus, MRSA, pH 5.5, MRSA 0606, pH 5.5
[12] = Staphylococcus aureus, MRSA, pH 5.5, MRSA 0608, pH 5.5
[13] = Staphylococcus aureus, MRSA, pH 5.5, MRSA 0634, pH 5.5
[14] = Staphylococcus aureus, MRSA, pH 5.5, MRSA 0641, pH 5.5
[15] = Staphylococcus aureus, MRSA, pH 5.5, MRSA 0646, pH 5.5
[16] = Staphylococcus aureus, MRSA, pH 5.5, TCH 1516, pH 5.5
[17] = Staphylococcus aureus, MRSA, pH 6.5, MRSA 0606, pH 6.5
[18] = Staphylococcus aureus, MRSA, pH 6.5, MRSA 0608, pH 6.5
[19] = Staphylococcus aureus, MRSA, pH 6.5, MRSA 0634, pH 6.5
[20] = Staphylococcus aureus, MRSA, pH 6.5, MRSA 0641, pH 6.5
[21] = Staphylococcus aureus, MRSA, pH 6.5, MRSA 0646, pH 6.5
[22] = Staphylococcus aureus, MRSA, pH 6.5, TCH 1516, pH 6.5
[23] = ATCC49532, Enterococcus faecalis (ATCC 49532)
[24] = ATCC51575, Enterococcus faecalis (ATCC 51575)
[25] = Streptococcus pyogenes (NR1571)

**Q.** What does the source list for Oc1c(Br)cc(Br)cc1-c1cc(Br)cc(Br)c1O [C58, MC21-A]?
**A.** acid dissociation constant (Ka) [1]: 1.26 × 10^−12; pH of solution ([1]; room temperature): 6.80; MBC ([2]; MRSA 0606, pH 7.4): 6 µg/mL (≈ 12 µM); MIC ([2]; MRSA 0606, pH 7.4): 2 µg/mL (≈ 3.99 µM); MBC ([2]; MRSA 0608, pH 7.4): 4 µg/mL (≈ 7.97 µM); MIC ([2]; MRSA 0608, pH 7.4): 2 µg/mL (≈ 3.99 µM); MBC ([2]; MRSA 0634, pH 7.4): 2 µg/mL (≈ 3.99 µM); MIC ([2]; MRSA 0634, pH 7.4): 2 µg/mL (≈ 3.99 µM); MBC ([2]; MRSA 0641, pH 7.4): 4 µg/mL (≈ 7.97 µM); MIC ([2]; MRSA 0641, pH 7.4): 2 µg/mL (≈ 3.99 µM); MBC ([2]; MRSA 0646, pH 7.4): 4 µg/mL (≈ 7.97 µM); MIC ([2]; MRSA 0646, pH 7.4): 2 µg/mL (≈ 3.99 µM); MIC90 ([2]; Staphylococcus aureus, MRSA): 2 µg/mL (≈ 3.99 µM); MBC [2, 11]: 0.5 µg/mL (≈ 0.996 µM); MIC [2, 11]: 0.5 µg/mL (≈ 0.996 µM); MBC [2, 12]: 0.5 µg/mL (≈ 0.996 µM); MIC [2, 12]: 0.5 µg/mL (≈ 0.996 µM); MBC [2, 13]: 0.5 µg/mL (≈ 0.996 µM); MIC [2, 13]: 0.5 µg/mL (≈ 0.996 µM); MBC [2, 14]: 0.5 µg/mL (≈ 0.996 µM); MIC [2, 14]: 0.5 µg/mL (≈ 0.996 µM); MBC [2, 15]: 1 µg/mL (≈ 1.99 µM); MIC [2, 15]: 0.5 µg/mL (≈ 0.996 µM); MBC [2, 16]: 1 µg/mL (≈ 1.99 µM); MIC [2, 16]: 1 µg/mL (≈ 1.99 µM); MBC ([2]; Staphylococcus aureus, MRSA, pH 5.5, read-out: Average MBC, average of six MRSA isolates, pH 5.5): 0.67 µg/mL (≈ 1.34 µM); MIC ([2]; Staphylococcus aureus, MRSA, pH 5.5, read-out: Average MIC, average of six MRSA isolates, pH 5.5): 0.58 µg/mL (≈ 1.16 µM); MBC [2, 17]: 2 µg/mL (≈ 3.99 µM); MIC [2, 17]: 1 µg/mL (≈ 1.99 µM); MBC [2, 18]: 2 µg/mL (≈ 3.99 µM); MIC [2, 18]: 2 µg/mL (≈ 3.99 µM); MBC [2, 19]: 2 µg/mL (≈ 3.99 µM); MIC [2, 19]: 1 µg/mL (≈ 1.99 µM); MBC [2, 20]: 2 µg/mL (≈ 3.99 µM); MIC [2, 20]: 1 µg/mL (≈ 1.99 µM); MBC [2, 21]: 2 µg/mL (≈ 3.99 µM); MIC [2, 21]: 1 µg/mL (≈ 1.99 µM); MBC [2, 22]: 2 µg/mL (≈ 3.99 µM); MIC [2, 22]: 1 µg/mL (≈ 1.99 µM); MBC ([2]; Staphylococcus aureus, MRSA, pH 6.5, read-out: Average MBC, average of six MRSA isolates, pH 6.5): 2 µg/mL (≈ 3.99 µM); MIC ([2]; Staphylococcus aureus, MRSA, pH 6.5, read-out: Average MIC, average of six MRSA isolates, pH 6.5): 1.2 µg/mL (≈ 2.39 µM); MBC ([2]; Staphylococcus aureus, MRSA, pH 7.4, read-out: Average MBC, average of six MRSA isolates, pH 7.4): 4 µg/mL (≈ 7.97 µM); MIC ([2]; Staphylococcus aureus, MRSA, pH 7.4, read-out: Average MIC, average of six MRSA isolates, pH 7.4): 2 µg/mL (≈ 3.99 µM); MBC ([2]; Staphylococcus aureus, MRSA, read-out: MBC90, 39 evaluated MRSA isolates, CLSI broth microdilution): 4 µg/mL (≈ 7.97 µM); MBC ([2]; TCH 1516, pH 7.4): 4 µg/mL (≈ 7.97 µM); MIC ([2]; TCH 1516, pH 7.4): 2 µg/mL (≈ 3.99 µM); change of MIC and MBC with the reduction in pH ([2]; six MRSA isolates, pH lowered to 5.5): decreased as much as fourfold; MBC range [3]: 4 to 12 µg/mL; MIC range [3]: 1 to 4 µg/mL; MBC ([3]; read-out: MBC90): 8 µg/mL (≈ 15.9 µM); MIC90 ([3]; read-out: MIC90): 2 µg/mL (≈ 3.99 µM); MBC [4, 23]: 12 µg/mL (≈ 23.9 µM); MIC [4, 23]: 6 µg/mL (≈ 12 µM); MBC [4, 24]: 12 µg/mL (≈ 23.9 µM); MIC [4, 24]: 6 µg/mL (≈ 12 µM); MIC [5, 25]: 4 µg/mL (≈ 7.97 µM); MIC ([5]; Streptococcus pyogenes (NR1575), read-out: MIC): 4 µg/mL (≈ 7.97 µM); MBC [5, 25]: 16 µg/mL (≈ 31.9 µM); MBC ([5]; Streptococcus pyogenes (NR1575)): 12 µg/mL (≈ 23.9 µM); MIC ([6]; Pseudomonas aeruginosa (PAM57-15)): > 32 µg/mL; MIC ([6]; Pseudomonas aeruginosa (PAO1)): > 32 µg/mL; concentration that completely eradicated biofilms ([7]; 72-hour biofilms of SAD05, MBEC assay): 8 µg/mL; biofilm biomass, crystal violet assay ([7]; SAD05 biofilms, compared with vancomycin): lower biomass; LD50 [8]: 71.3 µg/mL; LD50 [9]: 59.3 µg/mL; concentration where hemolytic activity begins relative to MIC90 [10]: 32 fold
